Results as given in PubChem BioAssay AID2743 (NMMLSC, 2010).
Calls of active or inactive are those of the source.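 The calls were made as follows: active = fitted half-maximal concentration for change in GFP expression of 33 µM or less; inactive = the rest.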

Experiment: concentration-dependent AGP1-GFP change, TOR pathway – cell-based, flow cytometry, S. cerevisiae, MLPCN hits, dose response (AID 2743)
Settings: S. cerevisiae AGP1-GFP strain, flow cytometry GFP, 3 h; at 33 µM (top of the series)

| SMILES | GFP fluorescence (kMESF) |
| --- | --- |
| Cc1ccc(/C=C2/C(=O)ON=C2c2ccccc2)o1 | 40.1 kMESF (inactive) |
| Nc1ccccc1SC(C[N+](=O)[O-])c1ccccc1 (stereo not given) | 39.9 kMESF (inactive) |
| Oc1c(CN2CCN(c3ccc(F)cc3)CC2)cc(Cl)c2cccnc12 | 41.8 kMESF (inactive) |
| Cc1ccc(S(=O)(=O)c2ccc([N+](=O)[O-])cn2)cc1 | 40.7 kMESF (inactive) |
| O=C(/C=C/c1ccccn1)c1cc(Br)ccc1O | 37.3 kMESF (inactive) |
| Cc1ccc(/C(N)=N/OC(=O)c2ccc(F)cc2)cc1 | 23.1 kMESF (inactive) |
| O=C(OCn1ncc(Br)c(Br)c1=O)c1ccccc1Cl | 46 kMESF (inactive) |
| COc1cc(NC(=O)c2cccc(C)c2)ccc1NC(=O)c1cc2ccccc2o1 | 44.2 kMESF (inactive) |
| COc1ccc(C(=O)/C=C2/C(=O)Nc3ccccc32)cc1OC | 43.9 kMESF (inactive) |
| O=C(OCn1ncc(Br)c(Br)c1=O)c1ccc(F)cc1 | 43.7 kMESF (inactive) |
| CC(=O)Oc1ccc(N2C(=O)C3C4C=CC(CO)(O4)C3C2=O)cc1 (stereo not given) | 41.3 kMESF (inactive) |
| CCN1/C(=C/c2ccc3cc(C)ccc3[n+]2CC)Sc2ccc3sccc3c21 | 43.3 kMESF (inactive) |
| CC1=C(C)/C(=N\OS(=O)(=O)c2ccc(C)cc2)C=CC1=O | 31.9 kMESF (inactive) |
| Cc1cc(/C=C2/SC(=S)N(c3cccc(Cl)c3)C2=O)c(C)n1-c1cccnc1 | 46.4 kMESF (inactive) |
| O=C1CC(c2ccccc2)=NN1c1nc(-c2ccccc2)cs1 | 26 kMESF (inactive) |
| O=C(CSC1=NS(=O)(=O)c2ccccc21)Nc1ccccc1 | 27.1 kMESF (inactive) |
| O=C(Oc1cccc2cccnc12)c1ccc(Br)o1 | 38.2 kMESF (inactive) |
| CCc1sc(C(=O)Nc2nc(-c3ccccn3)cs2)cc1C | 27.9 kMESF (inactive) |
| CCC(=O)Oc1oc(-c2ccccc2)nc1C=Nc1ccccc1OC | 42.9 kMESF (inactive) |
| N/C(Cc1ccc(Cl)cc1Cl)=N\OC(=O)c1ccccc1 | 29.1 kMESF (inactive) |
| COc1cccc(N=Nc2ccc(O)c3ncccc23)c1 | 45.7 kMESF (inactive) |
| COc1cc(/C=C2\C(=O)ON=C2c2ccc(Cl)cc2)ccc1O | 33 kMESF (inactive) |
| CN1C(=O)/C(=N\OC(=O)c2cccc3ccccc23)c2ccccc21 | 38.2 kMESF (inactive) |

| SMILES | GFP fluorescence (kMESF) |
| --- | --- |
| Cc1ccc(N2C(=O)C(Cl)=C(Nc3c(C)n(C)n(-c4ccccc4)c3=O)C2=O)cc1 | 35 kMESF (inactive) |
| O=C(c1ccccn1)c1conc1C(=O)c1ccc(Br)cc1 | 39.4 kMESF (inactive) |
| O=C1N(c2ccccc2C(F)(F)F)O[C@]1(c1ccccc1)C1CCCC1 | 32.8 kMESF (inactive) |
| CCN(CC)c1ccc(/C=C2/C(=O)c3ccc(C(=O)O)cc3C2=O)cc1 | 655 kMESF (inactive) |
| COc1ccc(CCNC2=C(Cl)C(=O)N(CCc3ccccc3)C2=O)cc1OC | 42 kMESF (inactive) |
| CC(Oc1cccc(Cl)c1)C(=O)Nc1nc(-c2ccccn2)cs1 (stereo not given) | 50.7 kMESF (inactive) |
| COc1ccc(N2C(=O)/C(=C/c3cccs3)C(=O)NC2=S)cc1 | 27.3 kMESF (inactive) |
| CCN(CC)C(=S)SSC(=S)N(CC)CC | 37.5 kMESF (inactive) |
| O=C(c1ccc([N+](=O)[O-])o1)N1CCN(c2nc3c(F)cc(F)cc3s2)CC1 | 30.3 kMESF (inactive) |
| CN(C)c1ccc(/C=C/c2cc[n+](C)cc2)cc1 | 30 kMESF (inactive) |
| CC(C)Cn1c(=O)c(C(=O)Nc2ccncc2)c(O)c2ccccc21 | 16.1 kMESF (inactive) |
| CC1=NNC(=O)/C1=C\c1cn(-c2ccccc2)nc1-c1cccs1 | 37.3 kMESF (inactive) |
| COC(=O)/C(=C/c1c[nH]c2ccccc12)[N+](=O)[O-] | 39.1 kMESF (inactive) |
| O=[N+]([O-])c1ccc(O)c(/C=N/Nc2ccccn2)c1 | 30.3 kMESF (inactive) |
| O=C(NC(=S)NNC(=O)c1cnccn1)c1ccc(Cl)cc1 | 37.6 kMESF (inactive) |
| CC1(c2ccccc2)ON(c2ccccc2C(F)(F)F)C1=O (stereo not given) | 29.4 kMESF (inactive) |
| Cc1ccccc1[C@]1(C)ON(c2ccccc2C(F)(F)F)C1=O | 34.6 kMESF (inactive) |
| O=C1C=CC(=O)N1c1ccc(Sc2ccc([N+](=O)[O-])cc2)cc1 | 38.7 kMESF (inactive) |
| O=C1C2C3C=CC(CO)(O3)C2C(=O)N1c1ccccc1-c1ccccc1 (stereo not given) | 36.3 kMESF (inactive) |
| CCc1ccc(OCC(=O)NNC(=S)NC(=O)C2CC2)c(Br)c1 | 45.2 kMESF (inactive) |
| Cc1ccc2nc(/C(C#N)=C/c3ccc(O)c(O)c3)[nH]c2c1 | 41.6 kMESF (inactive) |
| CC(=O)N(C(C)=O)c1ncnc2c1c(-c1ccc(Cl)cc1)nn2C(C)(C)C | 36.6 kMESF (inactive) |
